These are literature values, as cited in patent publication US20260248129A1, “SPRAYABLE SUBSTANCES FOR PHOTOSYNTHESIS ENHANCEMENT” (Sensei Ag Holdings, Inc., priority 2023, published 2026).

In brackets after ≈: the same amount, converted by molar mass. Where two headings read alike, the source gives them in different places.

For series [1] the following is noted: ethanol, methanol, hexane, ether, and a variety of other solvents.
Assay in series [2]: not given
The source holds these as a separate data set.

Consider `c1ccc2cc3ccccc3cc2c1` [anthracene, Anthracene], for which the “stability under light (in words)” value is “does eventually degrade under light”. Further, the “solubility in organic solvents (in words)” value in series [1] is “very soluble”. The “solubility in water (in words)” value in series [2] (water) was “slightly soluble”. Further, the water solubility in series [2] (water at 25° C.) is 0.044 mg/L (≈ 0.247 µM).

Turning to `O=c1ccc2ccccc2o1` [coumarin, Coumarin], the water solubility in series [2] (water) is reported as 0.17 mg/100 mL.
